In patent publication US20250312499A1, “KISSPEPTIN RECEPTOR (KISS1R) TARGETED THERAPEUTICS AND USES THEREOF” (priority 2024, published 2025):
Numbered stars: 1 amine (or outer) side, 2 acyl side, 3 side chain; on linkers, the order of the positions; unused ones are H or OH. Square brackets hold non-standard residues; d marks the D form. Peptide text beside a SMILES is read from it. * marks the point of attachment. X8 = COCCOCCOCCOCCOCCOCCOCCOCCOCCOCCOCCOCCOCCOCCOCCOCCOCCOCCOCCOCCOCCOCCOCCOCCOCCC(=O)*; DOTA = O=C(O)CN1CCN(CC(=O)O)CCN(CC(=O)*)CCN(CC(=O)O)CC1; Ala(9-anthryl) = N[C@@H](Cc1c2ccccc2cc2ccccc12)C(=O)O; Gly(N-(3-F-4-Me-benzyl)) = Cc1ccc(CNCC(=O)*)cc1F; Bpa = N[C@@H](Cc1ccc(C(=O)c2ccccc2)cc1)C(=O)O; Api(1-amidino) = N=C(N)N1CCC(N)(C(=O)O)CC1; X14 = O=C([C@H]1CC[C@@H](CN[*:1])CC1)[*:2]; Phe(3-F) = N[C@@H](Cc1cccc(F)c1)C(=O)O; Phe(4-I) = N[C@@H](Cc1ccc(I)cc1)C(=O)O; d2Nal = N[C@H](Cc1ccc2ccccc2c1)C(=O)O; Trx = NC[C@H]1CC[C@H](C(=O)O)CC1; 4Pal = N[C@@H](Cc1ccncc1)C(=O)O; d4Pal = N[C@H](Cc1ccncc1)C(=O)O; 4Amb = NCc1ccc(C(=O)O)cc1; Octanoyl = CCCCCCCC(=O)*; Api = NC1(C(=O)O)CCNCC1; Ahx = NCCCCCC(=O)O; azaGly = NNC(=O)O

Biological target: human kisspeptin receptor (Homo sapiens (Human), UniProt Q969F8)
Sequence (Q969F8 whole entry): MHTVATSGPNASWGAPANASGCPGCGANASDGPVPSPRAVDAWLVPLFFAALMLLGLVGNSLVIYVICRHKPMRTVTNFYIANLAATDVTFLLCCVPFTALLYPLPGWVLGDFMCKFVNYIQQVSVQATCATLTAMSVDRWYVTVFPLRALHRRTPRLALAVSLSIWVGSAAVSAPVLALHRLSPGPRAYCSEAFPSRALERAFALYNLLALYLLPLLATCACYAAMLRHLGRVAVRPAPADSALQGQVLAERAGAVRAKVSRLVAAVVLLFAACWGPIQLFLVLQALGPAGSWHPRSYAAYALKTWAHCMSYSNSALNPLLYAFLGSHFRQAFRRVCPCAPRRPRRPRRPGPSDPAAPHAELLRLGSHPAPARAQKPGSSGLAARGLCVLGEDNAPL
Test: Human KISS1R binding assay (membrane competition binding)
Conditions: 90 min at room temperature; competition with 0.2 nM [125I]-metastin (45-54); Flp-In T-Rex 293 kisspeptin membranes; metal complexes nonradioactive Ga, In, Lu; read-out: hKiSSR Binding Ki (90 min)
How it was run: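 Radioligand competition: 0.2 nM [125I]-metastin (45-54) displaced by test ligand (usually 0–10,000 nM) over 90 min at room temperature, pH 7.4 buffer with 0.1% BSA. Receptor source is crude membrane (5–10 μg) from tetracycline-induced Flp-In T-Rex 293 cells. Bound label filtered and counted; Ki from non-linear regression.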

Structure (SMILES)	Ki [nM]
Cc1ccc(CNCC(=O)N2CCC(NC(=O)[C@H](CC(C)C)NC(=O)NNC(=O)[C@H](Cc3ccccc3)NC(=O)[C@H]3CC[C@H](CNC(=O)[C@@H](CCC(=O)O)NC(=O)CN4CCN(CC(=O)O)CCN(CC(=O)O)CCN(CC(=O)O)CC4)CC3)(C(=O)N[C@@H](Cc3c[nH]c4ccccc34)C(N)=O)CC2)cc1F [Compound 166] ({DOTA}-[dE][Trx]F[azaGly]L[Api](Gly(N-(3-F-4-Me-benzyl)))W-NH2)	< 10
CSCC[C@H](NC(=O)c1ccc(CNC(=O)CN2CCN(CC(=O)O)CCN(CC(=O)O)CCN(CC(=O)O)CC2)cc1)C(=O)N[C@H](C(=O)NCc1ccc(C(=O)N[C@@H](CCSC)C(=O)N[C@H](C(=O)N[C@@H](CCCCNC(=O)CCCCC(=O)N[C@@H](CC(N)=O)C(=O)N[C@H](C(=O)N[C@@H](Cc2ccccc2)C(=O)NNC(=O)N[C@@H](CC(C)C)C(=O)NC2(C(=O)N[C@@H](Cc3c[nH]c4ccccc34)C(N)=O)CCN(C(=O)CNCc3ccc(C)c(F)c3)CC2)[C@@H](C)O)C(=O)O)C(C)C)cc1)C(C)C [Compound 167]	< 10
Cc1ccc(CNCC(=O)N2CCC(NC(=O)[C@H](CC(C)C)NC(=O)NNC(=O)[C@H](Cc3cccc(F)c3)NC(=O)[C@@H](NC(=O)[C@H](CC(N)=O)NC(=O)CCCCCNC(=O)CN3CCN(CC(=O)O)CCN(CC(=O)O)CCN(CC(=O)O)CC3)[C@@H](C)O)(C(=O)N[C@@H](Cc3ccncc3)C(N)=O)CC2)cc1F [Compound 169] ({DOTA-Ahx}-NT[Phe(3-F)][azaGly]L[Api](Gly(N-(3-F-4-Me-benzyl)))[4Pal]-NH2)	< 10
Cc1ccc(CNCC(=O)N2CCC(NC(=O)[C@H](CC(C)C)NC(=O)NNC(=O)[C@H](Cc3cccc(F)c3)NC(=O)[C@@H](NC(=O)[C@H](CC(N)=O)NC(=O)[C@H](CCC(=O)O)NC(=O)[C@H]3CC[C@@H](CNC(=O)CN4CCN(CC(=O)O)CCN(CC(=O)O)CCN(CC(=O)O)CC4)CC3)[C@@H](C)O)(C(=O)N[C@@H](Cc3ccncc3)C(N)=O)CC2)cc1F [Compound 170] ({DOTA}-[X14]ENT[Phe(3-F)][azaGly]L[Api](Gly(N-(3-F-4-Me-benzyl)))[4Pal]-NH2)	< 10
Cc1ccc(CNCC(=O)N2CCC(NC(=O)[C@H](CC(C)C)NC(=O)NNC(=O)[C@H](Cc3cccc(F)c3)NC(=O)[C@@H](NC(=O)[C@H](CC(N)=O)NC(=O)[C@H](CCC(=O)O)NC(=O)CN3CCN(CC(=O)O)CCN(CC(=O)O)CCN(CC(=O)O)CC3)[C@@H](C)O)(C(=O)N[C@@H](Cc3ccncc3)C(N)=O)CC2)cc1F [Compound 171] ({DOTA}-ENT[Phe(3-F)][azaGly]L[Api](Gly(N-(3-F-4-Me-benzyl)))[4Pal]-NH2)	10 to 100
COCCOCCOCCOCCOCCOCCOCCOCCOCCOCCOCCOCCOCCOCCOCCOCCOCCOCCOCCOCCOCCOCCOCCOCCOCCC(=O)N[C@H](Cc1ccc(O)cc1)C(=O)N[C@@H](CCCCNC(=O)CN1CCN(CC(=O)O)CCN(CC(=O)O)CCN(CC(=O)O)CC1)C(=O)N[C@@H](CC(N)=O)C(=O)N[C@H](C(=O)N[C@@H](Cc1ccccc1)C(=O)NNC(=O)N[C@@H](CC(C)C)C(=O)NC1(C(=O)N[C@@H](Cc2c[nH]c3ccccc23)C(N)=O)CCN(C(=N)N)CC1)[C@@H](C)O [Compound 182] (X8-[dY]K(DOTA)NTF[azaGly]L[Api(1-amidino)]W-NH2)	< 10

Now from value to molecule:

Ki [nM]	Structure (SMILES)
< 10	CSCC[C@H](NC(=O)c1ccc(CNC(=O)CN2CCN(CC(=O)O)CCN(CC(=O)O)CCN(CC(=O)O)CC2)cc1)C(=O)N[C@@H](Cc1c[nH]c2ccccc12)C(=O)N[C@@H](CCCCNC(=O)CCCCC(=O)N[C@@H](CC(N)=O)C(=O)N[C@H](C(=O)N[C@@H](Cc1ccccc1)C(=O)NNC(=O)N[C@@H](CC(C)C)C(=O)NC1(C(=O)N[C@@H](Cc2c[nH]c3ccccc23)C(N)=O)CCN(C(=O)CNCc2ccc(C)c(F)c2)CC1)[C@@H](C)O)C(=O)O [Compound 168]
< 10	Cc1ccc(CNCC(=O)N2CCC(NC(=O)[C@H](CC(C)C)NC(=O)NNC(=O)[C@H](Cc3ccccc3)NC(=O)CCCCCNC(=O)[C@H](Cc3ccc(O)cc3)NC(=O)CNC(=O)c3ccc(CNC(=O)CN4CCN(CC(=O)O)CCN(CC(=O)O)CCN(CC(=O)O)CC4)cc3)(C(=O)N[C@@H](Cc3c[nH]c4ccccc34)C(N)=O)CC2)cc1F [Compound 176] ({DOTA-4Amb}-GY[Ahx]F[azaGly]L[Api](Gly(N-(3-F-4-Me-benzyl)))W-NH2)
< 10	CCCCCCCC(=O)N[C@H](Cc1ccc(O)cc1)C(=O)N[C@@H](CCCCNC(=O)CN1CCN(CC(=O)O)CCN(CC(=O)O)CCN(CC(=O)O)CC1)C(=O)N[C@@H](CC(N)=O)C(=O)N[C@H](C(=O)N[C@@H](Cc1ccccc1)C(=O)NNC(=O)N[C@@H](CC(C)C)C(=O)NC1(C(=O)N[C@@H](Cc2c[nH]c3ccccc23)C(N)=O)CCN(C(=O)CNCc2ccc(C)c(F)c2)CC1)[C@@H](C)O [Compound 181] (Octanoyl-[dY]K(DOTA)NTF[azaGly]L[Api](Gly(N-(3-F-4-Me-benzyl)))W-NH2)
< 10	CC(C)C[C@H](NC(=O)NNC(=O)[C@H](Cc1ccccc1)NC(=O)[C@@H](NC(=O)[C@H](CC(N)=O)NC(=O)[C@H](Cc1ccc(C(=O)c2ccccc2)cc1)NC(=O)[C@@H](Cc1ccc(O)cc1)NC(=O)CCCCCNC(=O)CN1CCN(CC(=O)O)CCN(CC(=O)O)CCN(CC(=O)O)CC1)[C@@H](C)O)C(=O)NC1(C(=O)N[C@@H](Cc2c[nH]c3ccccc23)C(N)=O)CCN(C(=N)N)CC1 [Compound 183] ({DOTA-Ahx}-[dY][Bpa]NTF[azaGly]L[Api(1-amidino)]W-NH2)
< 10	CC(C)C[C@H](NC(=O)NNC(=O)[C@H](Cc1ccccc1)NC(=O)[C@@H](NC(=O)[C@H](CC(N)=O)NC(=O)[C@H](Cc1c2ccccc2cc2ccccc12)NC(=O)[C@@H](Cc1ccc(O)cc1)NC(=O)CCCCCNC(=O)CN1CCN(CC(=O)O)CCN(CC(=O)O)CCN(CC(=O)O)CC1)[C@@H](C)O)C(=O)NC1(C(=O)N[C@@H](Cc2c[nH]c3ccccc23)C(N)=O)CCN(C(=N)N)CC1 [Compound 184] ({DOTA-Ahx}-[dY][Ala(9-anthryl)]NTF[azaGly]L[Api(1-amidino)]W-NH2)
< 10	CC(C)C[C@H](NC(=O)NNC(=O)[C@H](Cc1ccccc1)NC(=O)[C@@H](NC(=O)[C@H](CC(N)=O)NC(=O)[C@@H](Cc1ccc2ccccc2c1)NC(=O)[C@@H](Cc1ccc(O)cc1)NC(=O)CCCCCNC(=O)CN1CCN(CC(=O)O)CCN(CC(=O)O)CCN(CC(=O)O)CC1)[C@@H](C)O)C(=O)NC1(C(=O)N[C@@H](Cc2ccc(O)cc2)C(N)=O)CCN(C(=N)N)CC1 [Compound 185] ({DOTA-Ahx}-[dY][d2Nal]NTF[azaGly]L[Api(1-amidino)]Y-NH2)
< 10	Cc1ccc(CNCC(=O)N2CCC(NC(=O)[C@H](CC(C)C)NC(=O)NNC(=O)[C@H](Cc3ccccc3)NC(=O)CCCCCNC(=O)[C@@H](Cc3ccncc3)NC(=O)[C@@H](Cc3ccc(O)cc3)NC(=O)CN3CCN(CC(=O)O)CCN(CC(=O)O)CCN(CC(=O)O)CC3)(C(=O)N[C@@H](Cc3c[nH]c4ccccc34)C(N)=O)CC2)cc1F [Compound 186] ({DOTA}-[dY][d4Pal][Ahx]F[azaGly]L[Api](Gly(N-(3-F-4-Me-benzyl)))W-NH2)
10 to 100	CC(C)C[C@H](NC(=O)NNC(=O)[C@H](Cc1ccc(I)cc1)NC(=O)[C@@H](NC(=O)[C@H](CC(N)=O)NC(=O)[C@H](Cc1c2ccccc2cc2ccccc12)NC(=O)[C@@H](Cc1ccc(O)cc1)NC(=O)CN1CCN(CC(=O)O)CCN(CC(=O)O)CCN(CC(=O)O)CC1)[C@@H](C)O)C(=O)NC1(C(=O)N[C@@H](Cc2ccncc2)C(N)=O)CCN(C(=N)N)CC1 [Compound 188] ({DOTA}-[dY][Ala(9-anthryl)]NT[Phe(4-I)][azaGly]L[Api(1-amidino)][4Pal]-NH2)
